Measurements: the pKa sets of Baltruschat and Czodrowski (2020)

| SMILES | pKa |
| --- | --- |
| Cc1nc2c3c(c(C(=O)N(C)C)cn2c1C)CCC(c1ccccc1)O3 (stereo not given) | 7.15 |
| COc1cc(NS(C)(=O)=O)ccc1Nc1c2ccccc2nc2cc(C)ccc12 | 7.7 |
| Cl.Fc1ccc2c(c1)N(CCCN1CCCC1)c1cc(F)ccc1CC2 | 7.6 |
| Cc1ccccc1N=C1NCCN1 | 10.2 |
| O=c1[nH]c(=O)n([C@H]2C[C@H](O)[C@@H](CO)O2)cc1I | 8.2 |
| COc1ccc2c(c1)N(CCN(C)C)CCO2 | 8.6 |
| COc1ccccc1Nc1c2ccccc2nc2ccccc12 | 7.74 |
| COc1cccc(S(=O)(=O)Nc2cccn(CC(=O)NCc3ccc(C(=N)N)cc3)c2=O)c1 | 10.2 |
| COc1ccc(Nc2c3ccccc3nc3ccccc23)cc1 | 7.94 |
| CCOC(=O)c1ccc(N)cc1 | 2.5 |
| CS(=O)(=O)Nc1ccc(Nc2c3ccccc3nc3ccncc23)cc1 | 5.73 |
| Cc1ccc2c(Nc3ccc(NS(C)(=O)=O)cc3)c3ccccc3nc2c1 | 7.49 |
| CCCCCS(=O)(=O)NCCCc1ccc(OCCOC)cc1Oc1ncc(C(F)(F)F)cc1Cl | 17.5 |
| C[C@H](CO)Nc1nc(SCc2cccc(F)c2F)nc2[nH]c(=O)sc12 | 6.7 |
| O=C(c1ccc(Cl)cc1)c1ccc(OC2CN3CCC2CC3)cc1 (stereo not given) | 9.1 |
| CS(=O)(=O)Nc1ccc(Nc2c3ccccc3nc3cccc(Cl)c23)cc1 | 5.86 |
| COc1cc(NS(C)(=O)=O)ccc1Nc1c2ccccc2nc2c(C(=O)NCC(N)=O)cccc12 | 6.18 |
| c1ccc(CC2CCN(CCCc3c[nH]c4ccc(-n5cnnc5)cc34)CC2)cc1 | 9.7 |
| Clc1cccc(Nc2c3ccccc3nc3ccccc23)c1 | 6.76 |
| CNC(=O)c1cccc2c(Nc3ccc(NS(C)(=O)=O)cc3OC)c3cccc(C)c3nc12 | 6.4 |

| SMILES | pKa |
| --- | --- |
| Fc1ccccc1Nc1c2ccccc2nc2ccccc12 | 6.84 |
| NC(=O)CF | 22.3 |
| CCCCCS(=O)(=O)Nc1ccc(Nc2c3ccccc3nc3ccccc23)cc1 | 7.19 |
| C[C@H](O)c1nccc(N2C[C@@H](C)N(c3ccnc([C@@H](C)O)n3)[C@@H](C)C2)n1 | 6 |
| CCN(C)C | 10.2 |
| c1cnon1 | -5 |
| CC(CN1c2ccccc2Sc2ccccc21)N(C)C (stereo not given) | 9.1 |
| CC(=O)Nc1ccc2c(Nc3ccc(NS(C)(=O)=O)cc3)c3ccccc3[nH+]c2c1.CS(=O)(=O)[O-] | 7.34 |
| Clc1cc(Cl)c(N=C2NCCN2)c(Cl)c1 | 7.75 |
| CCN(CC)C(=O)[C@@H]1C=C2c3cccc4[nH]cc(c34)C[C@H]2N(C)C1 | 7.8 |
| O=S(=O)(O)CCc1ccc(Nc2c3ccccc3nc3ccccc23)cc1 | 7.77 |
| CC(=O)Nc1ccc(Nc2c3ccccc3nc3ccccc23)cc1 | 7.51 |
| Nc1ncnc2c1ncn2[C@@H]1O[C@H](COS(=O)(=O)NC(=O)c2ccccc2)[C@@H](O)[C@H]1O | 2.8 |
| Cn1ccnc1 | 7.12 |
| CC(C)(C)NCC(O)c1cc(O)cc(O)c1 (stereo not given) | 8.7 |
| Clc1ncc[nH]1 | 3.55 |
| O=C(O)c1coc2ccccc2c1=O | 8.85 |
| Cc1cccc(Cl)c1N=C1NCCN1 | 9.4 |
| O=C(c1ccc(C(F)(F)F)cc1)N1CCC(=Cc2ccc(C3=NCCO3)cc2)CC1 | 4.7 |
| Cl.Cl.NCCS | 9.11 |

| SMILES | pKa |
| --- | --- |
| CS(=O)(=O)Nc1ccc(Nc2c3ccccc3nc3ccccc23)cc1 | 7.19 |
| CCC12CCC(=O)C=C1c1c(cc(OCC(=O)OC(C)(C)C(=O)O)c(Cl)c1Cl)C2 (stereo not given) | 3.8 |
| CS(=O)(=O)Nc1ccccc1Nc1c2ccccc2nc2ccccc12 | 6.86 |
| CN1CCC[C@H]1c1cccnc1 | 8.1 |
| c1cncc(Nc2c3ccccc3nc3ccccc23)c1 | 6.46 |
| CNC(=O)c1cccc2c(Nc3ccc(NS(C)(=O)=O)cc3OC)c3ccccc3nc12 | 6.36 |
| CS(=O)(=O)Nc1ccc(Nc2c3ccccc3nc3c(C(N)=O)cccc23)cc1 | 6.12 |
| COc1cc(NS(C)(=O)=O)ccc1Nc1c2ccccc2nc2cc(Cl)ccc12 | 6.84 |
| CS(=O)(=O)Nc1ccc(Nc2c3ccccc3nc3cc([N+](=O)[O-])ccc23)cc1 | 5.52 |
| C/C(=N\N=C(/S)N/N=C(\S)Nc1ccccc1Cl)c1ccccn1 | 7.24 |
| O=S(=O)(Nc1ccc(Nc2c3ccccc3nc3ccccc23)cc1)c1ccccc1 | 7.09 |
| Fc1cccc(Cl)c1N=C1NCCN1 | 8.01 |
| C/C(=N\N=C(/S)N/N=C(\S)Nc1cccc(I)c1)c1ccccn1 | 7.03 |
| Clc1cccc(Br)c1N=C1NCCN1 | 7.93 |
| CN(C)CCNC1=Nc2cccc3cccc(c23)N1 | 6 |
| CCCCNC(=O)c1cccc2c(Nc3ccc(NS(C)(=O)=O)cc3OC)c3ccccc3nc12 | 6.36 |
| CCCCCCCOC(=O)c1ccc(OS(N)(=O)=O)cc1 | 8.27 |
| N[C@@H](CCC(=O)N[C@@H](CS)C(=O)NCC(=O)O)C(=O)O | 8.7 |
| CCN(CC)CCCC(C)Nc1c2ccc(Cl)cc2nc2ccc(OC)cc12 (stereo not given) | 10.2 |
| Cl.Fc1ccc2c(c1)N(CCCN1CCCCC1)c1cc(F)ccc1CC2 | 7.6 |
